Test results taken from patent publication US20230278958A1 (Merck Patent GmbH, priority 2020, published 2023).

What was measured:
NCI-H226 cells = assay: Viability assay in NCI-H226 (Yap-dependent) cells, CyQUANT; type: cell-based; conditions: Homo sapiens, 96 hour incubation
Procedure: The ability of YAP-TEAD inhibitors to inhibit tumor cell growth was evaluated using two different cell lines: NCI-H226, which is a YAP dependent cell line, and SW620 cells, where YAP and TAZ were knocked out using CRISPR to generate a YAP independent cell line.
For the assay, cells were treated in duplicates with the test compounds in a 10-point dose, 1:3 dilution steps, with the top concentration starting at 30 μM (final concentration in assay). After a 96 hour incubation at 37° C., 95% rH, and 5% CO2, a cell-permeant DNA-binding dye that stains only healthy cells (CyQUANT®, Promega) was added to the cells, allowing the quantification of cell viability.
Cell Media: The NCI-H226 cells were cultured in the following media: RPMI 1640, +10% FBS, +1× GlutaMAX, +10 mM HEPES, +0.5% Pen/Strep. The SW620-KO cells were cultured in the following media: DMEM/F-12, +10% FBS, +1× GlutaMAX, +10 mM HEPES, +0.5% Pen/Strep.
(§1) Reagents: The reagents used are listed below:
(§2) Cell culture: The cells were examined using an inverted microscope to check for health, cell density, etc. To dissociate adherent cells, the monolayer of cells was washed once with pre-warmed PBS. After removing the PBS, 3 ml pre-warmed Accutase was added to a F75 flask, dispersed evenly and the flask was allowed to sit in incubator for ˜4-5 minutes.
(§3) When a single cell suspension was obtained, 7 ml of prewarmed growth media was added and resuspended with the cells. The cell suspension was transferred to a sterile 15 ml conical centrifuge tube, and spun for 5 min at 300×g, RT. The supernatant was discarded and the pellet was resuspended in 10 ml of pre-warmed growth media.
(§4) The total cell count was determined, and 20 μl of the desired cell number was added to each well of a 384 well plate using a Multidrop Combi. The plates were then incubated for 24 hours at 37° C., 95% rH, and 5% CO2.
(§5) Compound treatment: 24 hours after seeding, the cells were treated with compounds.
(§6) A 1:333 dilution of compounds, diluted in DMSO, was made to get a final concentration of 0.3% DMSO per well. To transfer the compounds to the assay plate, 120 nl was shot from Labcyte low dead volume plates to the cell plates containing 20 μl media/well with the ECHO 555 liquid handling system.
(§7) After treatment, the cells were fed with 20 μl fresh pre-warmed assay media using a Multidrop combi.
The assay plates were then incubated for 96 h at 37° C., 95% rH, and 5% CO2.
96h after treatment 30 μl of CyQuant® reagent was added to the assay plates using a Multidrop combi in the dark. The plates were then incubated for 1 hour at 37° C., 95% rH and 5% CO2. Thereafter, the assay plates were removed from the incubator and allowed to equilibrate to RT for 30 min in the dark without lid. Finally, they were measured using an EnVision microplate reader with a FITC bottom read program.
Experimental data in the Viability assay of the compounds shown in Table 1 are shown in Table 3 below and classified in the following groups: […]

YAP-TEAD interaction = assay: SK-HEP-1 reporter assay (8x TEAD responsive elements driving NanoLuc luciferase); type: cell-based; conditions: Homo sapiens, SK-HEP1; SK-HEP-1 TEAD-NanoLuc reporter cells, 24 hour incubation, luciferase readout
Procedure: To identify inhibitors of YAP-TEAD interaction, 8× TEAD responsive elements driving the NanoLuc® luciferase gene were stably integrated into SK-HEP-1 cells (ECACC #: 91091816).
For the assay, cells were treated in duplicates with the test compounds in a 10-point dose, with the top concentration starting at 30 μM (final concentration in assay). After a 24 hour incubation at 37° C., 95% rH, and 5% CO2, a luciferase substrate/lysis reagent mix (NanoGlo™, Promega) was added to the cells, allowing the quantification of cellular luciferase activity.
Cell Media: The cells were cultured in the following media: MEM, +10% FBS, +1× GlutaMAX, +1 mM Sodium-Pyruvate, +100 μM Non-essential amino acids, +0.1 mg/ml Hygromycin. The media used for the assay was: MEM (w/o Phenol Red), +10% FBS, +1× GlutaMAX, +1 mM Sodium-Pyruvate, +100 μM Non-essential amino acids, +0.5% Pen/Strep
as §1
as §2, with “health and” for “health,”, “density.” for “density, etc.”, “Accutase®” for “Accutase”
as §3, §4, §5, §6, §7
The assay plates were then incubated for another 24 h at 37° C., 95% rH, and 5% CO2.
Luciferase readout: 24 h after treatment, the plates were taken out of the incubator and were allowed to equilibrate to RT. 30 μl of NanoGlo® reagent was added to the plates in the dark. Plates were shaken for 20 min on a Teleshake (˜1500 rpm) in the dark. The luminescence was then measured using an EnVision microplate reader. The IC50 values were generated using Genedata Screener®.
Experimental data in SK-HEP-1 reporter assay of the compounds shown in Table 1 are shown in Table 2 below and classified in the following groups: […]

SMILES | IC50 (NCI-H226 cells) [µM] | melting point [°C] | IC50 (YAP-TEAD interaction) [nM]
O=C(O)c1ccc2c(c1)c1nc(F)ccc1n2-c1ccc(C(F)(F)F)cc1 [Compound 18, 2-fluoro-5-[4-(trifluoromethyl)phenyl]-5H-pyrido[3,2-b]indole-8-carboxylic acid] | 0.1 to 1 | 300 | 10 to 100
O=C(O)c1cc2c3cccnc3n(Cc3ccc(C(F)(F)F)cc3)c2cn1 [Compound 34, 8-{[4-(trifluoromethyl)phenyl]methyl}-5,8,10-triazatricyclo[7.4.0.0^2,^7]trideca-1(9),2,4,6,10,12-hexaene-4-carboxylic acid] |  | 195 to 200 | 100 to 1000
Cc1ccc2c(c1)c1cc(C(=O)NCc3ccncc3)ccc1n2-c1ccc(C(F)(F)F)cc1 [Compound 59, 6-methyl-N-[(pyridin-4-yl)methyl]-9-[4-(trifluoromethyl)phenyl]-9H-carbazole-3-carboxamide] | 0.1 to 1 |  | 10 to 100
COCCC(CO)NC(=O)c1ccc2c(c1)c1cc(C)ccc1n2-c1ccc(C(F)(F)F)cc1 (stereo not drawn) [Compound 61, N-(1-hydroxy-4-methoxybutan-2-yl)-6-methyl-9-[4-(trifluoromethyl)phenyl]-9H-carbazole-3-carboxamide] | 0.1 to 1 |  | 100 to 1000
Cc1ccc2c(c1)c1cc(C(=O)NCC(O)CO)ccc1n2-c1ccc(C(F)(F)F)cc1 (stereo not drawn) [Compound 55, N-(2,3-dihydroxypropyl)-6-methyl-9-[4-(trifluoromethyl)phenyl]-9H-carbazole-3-carboxamide] | 0.001 to 0.1 |  | 10 to 100
Cc1ccc2c(c1)c1cc(C(=O)NCc3ccccn3)ccc1n2-c1ccc(C(F)(F)F)cc1 [Compound 51, 6-methyl-N-[(pyridin-2-yl)methyl]-9-[4-(trifluoromethyl)phenyl]-9H-carbazole-3-carboxamide] | 0.1 to 1 |  | 100 to 1000
Cc1ccc2c(c1)c1cc(C(N)=O)ccc1n2-c1ccc(C(F)(F)F)cc1 [Compound 48, 6-methyl-9-[4-(trifluoromethyl)phenyl]-9H-carbazole-3-carboxamide] | 0.1 to 1 |  | 10 to 100
O=C(O)c1ccc2c(c1)c1cnccc1n2-c1ccc(C(F)(F)F)cc1 [Compound 7, 5-[4-(trifluoromethyl)phenyl]-5H-pyrido[4,3-b]indole-8-carboxylic acid] | > 10 |  | > 1000
Cc1ccc2c(c1)c1cc(C(=O)NCC(C)O)ccc1n2-c1ccc(C(F)(F)F)cc1 (stereo not drawn) [Compound 40, N-(2-hydroxypropyl)-6-methyl-9-[4-(trifluoromethyl)phenyl]-9H-carbazole-3-carboxamide] | 0.001 to 0.1 |  | 10 to 100
Cc1ccc2c(c1)c1cc(C(=O)NC3CC3)ccc1n2-c1ccc(C(F)(F)F)cc1 [Compound 37, N-cyclopropyl-6-methyl-9-[4-(trifluoromethyl)phenyl]-9H-carbazole-3-carboxamide] | 0.001 to 0.1 |  | 10 to 100

The remaining lines, values ahead:

IC50 (NCI-H226 cells) [µM] | melting point [°C] | IC50 (YAP-TEAD interaction) [nM] | SMILES
0.1 to 1 | 271 to 272 | 10 to 100 | CC(C)c1ccc2c(c1)c1cc(C(=O)O)ccc1n2-c1ccc(C(F)(F)F)cc1 [Compound 13, 6-(propan-2-yl)-9-[4-(trifluoromethyl)phenyl]-9H-carbazole-3-carboxylic acid]
 | 250 to 252 | 100 to 1000 | CNC(=O)c1ccc2c(c1)c1nc(F)ccc1n2-c1ccc(C(F)(F)F)cc1 [Compound 25, 2-fluoro-N-methyl-5-[4-(trifluoromethyl)phenyl]-5H-pyrido[3,2-b]indole-8-carboxamide]
0.1 to 1 |  | 100 to 1000 | Cc1ccc2c(c1)c1cc(C(=O)NCC(C)(C)O)ccc1n2-c1ccc(C(F)(F)F)cc1 [Compound 43, N-(2-hydroxy-2-methylpropyl)-6-methyl-9-[4-(trifluoromethyl)phenyl]-9H-carbazole-3-carboxamide]
0.001 to 0.1 |  | 10 to 100 | Cc1ccc2c(c1)c1cc(C(=O)NCCO)ccc1n2-c1ccc(C(F)(F)F)cc1 [Compound 38, N-(2-hydroxyethyl)-6-methyl-9-[4-(trifluoromethyl)phenyl]-9H-carbazole-3-carboxamide]
